Test results: publication PMC9230136 (Pharmaceutics, 2022)
Where two headings read alike, the source gives them in different places.

Assays:
Jurkat = experiment: Antiproliferative assay (resazurin, 72 h); type: cell-based, human; conditions: for IC50: Homo sapiens, Jurkat, mean ± SE, 72 h; for fold increase in activity relative to 7ad: Jurkat cells
Method: (§1) Colon adenocarcinoma (HT-29) and T-cell leukemia (Jurkat) cells were grown in RPMI-1640 medium (Gibco, Milano, Italy). Promyelocytic leukemia cells (HL-60), non-small cell lung carcinoma (A549), cervix carcinoma (HeLa) and breast adenocarcinoma (MDA-MB-231) cells were grown in DMEM medium (Gibco, Milano, Italy). Both media were supplemented with 115 units/mL of penicillin G (Gibco, Milano, Italy), 115 μg/mL of streptomycin (Invitrogen, Milano, Italy) and 10% fetal bovine serum (Invitrogen, Milano, Italy). All the cell lines used were purchased from the American Type Culture Collection (ATCC, Manassas, VA, USA). Stock solutions (10 mM) of the compounds were obtained by dissolving them in DMSO.
(§2) The cells were seeded in 96-well plates at the appropriate density for each cell line. After 24 h, the cells were treated by performing serial 5-fold dilutions of the tested compounds starting from a concentration of 10 μM. All experimental conditions were tested in triplicate for statistical analysis. The plates were incubated for 72 h at 37 °C in a humidified 5% CO2 atmosphere. At the end of the incubation period, 10 μL of 100 μg/mL resazurin solution was added to each well; then, the plate was re-incubated for 3–4 h. The fluorescence of the wells in each plate was monitored using a Spark 10 M spectrophotometer (Tecan Group Ltd., Mannedorf, Switzerland) with a 535 nm excitation wavelength and a 600 nm emission wavelength.

MDA-MB-231 = experiment: Antiproliferative assay (resazurin, 72 h); type: cell-based, human; conditions: for IC50: Homo sapiens, MDA-MB-231
Method: as §1, §2

A549 = experiment: Antiproliferative assay (resazurin, 72 h); type: cell-based, human; conditions: Homo sapiens
Method: as §1, §2

HT-29 = experiment: Antiproliferative assay (resazurin, 72 h); type: cell-based, human; conditions: Homo sapiens, HT-29, mean ± SE, 72 h
Method: as §1, §2

HeLa = experiment: Antiproliferative assay (resazurin, 72 h); type: cell-based, human; conditions: Homo sapiens, HeLa
Method: as §1, §2

[1] = tested on: A549, MDA-MB-231, HeLa, HT-29 and Jurkat cancer cell lines; experiment: Antiproliferative activity over the panel of cancer cell lines; type: cell-based, human; conditions: for IC50: Homo sapiens; for fold reduction in potency (vs 7y): MDA-MB-231 and HT-29 cells
Method: as §1, §2

[2] = four of the five cell lines, read-out: IC50 values against four of the five cell lines
[3] = read-out: IC50 values (2-para-substituted phenyl derivatives)

IC50 (Jurkat; Table 1) [µM] | IC50 (MDA-MB-231; Table 1, mean ± SE, 72 h) [µM] | IC50 (A549; A549, Table 1, mean ± SE) [µM] | IC50 (HT-29; Table 1) [µM] | IC50 (HeLa; Table 1, mean ± SE) [µM] | melting point [°C] | IC50 (Jurkat; Table 2) [µM] | IC50 (MDA-MB-231; Table 2, mean ± SE, 72 h) [µM] | IC50 (A549; A549, Table 2, mean ± SE) [µM] | IC50 (HT-29; Table 2) [µM] | IC50 (HeLa; Table 2, mean ± SE) [µM] | Compound | further results
0.9 ± 0.09 | 1.27 ± 0.12 | 0.81 ± 0.08 | 0.49 ± 0.06 | 0.22 ± 0.03 | 182 to 184 | – | – | – | – | – | COc1ccc(CNc2nc3nc(C)cc(Nc4cc(OC)c(OC)c(OC)c4)n3n2)cc1 [Compound 7s, N^2-(4-Methoxybenzyl)-5-methyl-N^7-(3,4,5-trimethoxyphenyl)-[1,2,4]triazolo [1,5-a]pyrimidine-2,7-diamine] | IC50 (MDA-MB-231): 1.3 µM; IC50 ([1]; MDA-MB-231, against four of the five cell lines (not MDA-MB-231), read-out: IC50 values, range): 0.217 to 0.9 µM; IC50 [1, 2]: < 1 µM; fold reduction in antiproliferative activity vs 7p ([1]; all five lines): 2–5 fold
– | – | – | – | – | 182 to 184 | 0.26 ± 0.05 | 1.27 ± 0.45 | 0.43 ± 0.18 | 0.42 ± 0.02 | 0.22 ± 0.04 | Cc1cc(Nc2ccc(Br)cc2)n2nc(NCc3ccc4c(c3)OCO4)nc2n1 [Compound 8l, N^2-(Benzo[d][1,3]dioxol-5-ylmethyl)-N^7-(4-bromophenyl)-5-methyl-[1,2,4]triazolo [1,5-a]pyrimidine-2,7-diamine] | fold increase in activity relative to 7ad (Jurkat): 3-4 fold; fold reduction in potency (vs 7y) [1]: 2–3 fold
4.72 ± 0.36 | 0.06 ± 0.007 | 0.93 ± 0.11 | 0.79 ± 0.09 | 0.74 ± 0.08 | 136 to 138 | – | – | – | – | – | COc1cc(Nc2cc(C)nc3nc(NCc4cccc(Cl)c4)nn23)cc(OC)c1OC [Compound 7o, N^2-(3-Chlorobenzyl)-5-methyl-N^7-(3,4,5-trimethoxyphenyl)-[1,2,4]triazolo [1,5-a]pyrimidine-2,7-diamine] | fold increase in potency vs 7n (MDA-MB-231; MDA-MB-231 cells): 3 fold; IC50 [1, 2]: < 1 µM; fold reduction in activity vs 7n ([1]; four of the five cancer cell lines): 9-24 fold
> 10 | > 10 | > 10 | > 10 | 5.79 ± 0.42 | 260 | – | – | – | – | – | COc1cc(Nc2cc(C)nc3nc(-c4ccc(Cl)cc4)nn23)cc(OC)c1OC [Compound 7b, 2-(4-Chlorophenyl)-5-methyl-N-(3,4,5-trimethoxyphenyl)-[1,2,4]triazolo [1,5-a]pyrimidin-7-amine] | IC50 [1, 3]: < 2 µM
– | – | – | – | – | 156 to 158 | 0.28 ± 0.05 | 0.94 ± 0.34 | 0.81 ± 0.22 | 0.6 ± 0.16 | 0.19 ± 0.12 | Cc1cc(Nc2ccc(Cl)cc2)n2nc(NCc3ccc4c(c3)OCO4)nc2n1 [Compound 8i, N^2-(Benzo[d][1,3]dioxol-5-ylmethyl)-N^7-(4-chlorophenyl)-5-methyl-[1,2,4]triazolo [1,5-a]pyrimidine-2,7-diamine] | fold increase in activity relative to 7ad (Jurkat): 3-4 fold; fold reduction in potency (vs 7y) [1]: 2–3 fold
– | – | – | – | – | 178 to 180 | 0.29 ± 0.06 | 0.8 ± 0.26 | 0.3 ± 0.06 | 0.22 ± 0.04 | 0.19 ± 0.06 | Cc1ccc(CNc2nc3nc(C)cc(Nc4ccc(F)c(Cl)c4)n3n2)cc1 [Compound 8d, N^7-(3-Chloro-4-fluorophenyl)-N^2-(4-methylbenzyl)-5-methyl-[1,2,4]triazolo [1,5-a]pyrimidine-2,7-diamine] | fold reduction in activity vs 7p ([1]; all cell lines): 1.5–3 fold
3.57 ± 0.45 | 2.25 ± 0.19 | 2.71 ± 0.25 | > 10 | 3.76 ± 0.19 | 253 | – | – | – | – | – | COc1cc(Nc2cc(C)nc3nc(-c4ccc(F)cc4)nn23)cc(OC)c1OC [Compound 7a, 2-(4-Fluorophenyl)-5-methyl-N-(3,4,5-trimethoxyphenyl)-[1,2,4]triazolo [1,5-a]pyrimidin-7-amine] | IC50 [1, 3]: < 2 µM
7.02 ± 0.62 | 1.68 ± 0.18 | 3.88 ± 0.28 | 3.46 ± 0.37 | 1.61 ± 0.13 | 162 to 164 | – | – | – | – | – | COc1cc(Nc2cc(C)nc3nc(NCc4cccc(C)c4)nn23)cc(OC)c1OC [Compound 7q, 5-Methyl-N^2-(3-methylbenzyl)-N^7-(3,4,5-trimethoxyphenyl)-[1,2,4]triazolo [1,5-a]pyrimidine-2,7-diamine] | –
9.64 ± 0.8 | 0.059 ± 0.01 | > 10 | 2.53 ± 0.25 | 3.01 ± 0.3 | 184 to 186 | – | – | – | – | – | COc1cc(Nc2cc(C)nc3nc(NCc4ccncc4)nn23)cc(OC)c1OC [Compound 7j, 5-Methyl-N^2-(pyridin-4-ylmethyl)-N^7-(3,4,5-trimethoxyphenyl)-[1,2,4]triazolo [1,5-a]pyrimidine-2,7-diamine] | fold more active than 7i (MDA-MB-231; MDA-MB-231 cells): 46 fold
– | – | – | – | – | 166 to 168 | 0.63 ± 0.14 | 2.76 ± 0.55 | 1.64 ± 0.37 | 0.83 ± 0.003 | 0.68 ± 0.26 | Cc1ccc(CNc2nc3nc(C)cc(Nc4cccc(Cl)c4)n3n2)cc1 [Compound 8e, N^7-(3-Chlorophenyl)-N^2-(4-methylbenzyl)-5-methyl-[1,2,4]triazolo [1,5-a]pyrimidine-2,7-diamine] | –
9.59 ± 1.17 | 1.65 ± 0.19 | 8.88 ± 0.88 | 6.88 ± 0.49 | 5.05 ± 0.63 | 214 to 216 | – | – | – | – | – | COc1ccc(CCNc2nc3nc(C)cc(Nc4cc(OC)c(OC)c(OC)c4)n3n2)cc1 [Compound 7ac, N^2-(4-Methoxyphenethyl)-5-methyl-N^7-(3,4,5-trimethoxyphenyl)-[1,2,4]triazolo [1,5-a]pyrimidine-2,7-diamine] | –
– | – | – | – | – | 180 to 182 | 7.6 ± 0.06 | 9.82 ± 0.86 | 6.26 ± 2.02 | 7.13 ± 0.87 | 7.15 ± 0.6 | Cc1cc(Nc2cccc(C(F)(F)F)c2)n2nc(NCc3ccc4c(c3)OCO4)nc2n1 [Compound 8o, N^2-(Benzo[d][1,3]dioxol-5-ylmethyl)-N^7-(3-trifluoromethylphenyl)-5-methyl-[1,2,4]triazolo [1,5-a]pyrimidine-2,7-diamine] | –
4.4 ± 0.38 | 2.71 ± 0.31 | 3.75 ± 0.26 | 3.53 ± 0.14 | 3.2 ± 0.24 | 173 to 175 | – | – | – | – | – | COc1cc(Nc2cc(C)nc3nc(NCc4ccccc4)nn23)cc(OC)c1OC [Compound 7i, N^2-Benzyl-5-methyl-N^7-(3,4,5-trimethoxyphenyl)-[1,2,4]triazolo [1,5-a]pyrimidine-2,7-diamine] | –
1.22 ± 0.09 | 1.22 ± 0.15 | 1 ± 0.09 | > 10 | 0.56 ± 0.07 | 194 to 196 | – | – | – | – | – | COc1ccc(CNc2nc3nc(C)cc(Nc4cc(OC)c(OC)c(OC)c4)n3n2)cc1OC [Compound 7v, N^2-(3,4-Dimethoxybenzyl)-5-methyl-N^7-(3,4,5-trimethoxyphenyl)-[1,2,4]triazolo [1,5-a]pyrimidine-2,7-diamine] | –
– | – | – | – | – | 158 to 160 | 0.88 ± 0.5 | 1.88 ± 0.08 | 1.74 ± 0.13 | 1.64 ± 0.22 | 0.81 ± 0.15 | Cc1cc(Nc2cccc(Cl)c2)n2nc(NCc3ccc(Cl)cc3)nc2n1 [Compound 8b, N^7-(3-Chlorophenyl)-N^2-(4-chlorobenzyl)-5-methyl-[1,2,4]triazolo [1,5-a]pyrimidine-2,7-diamine] | –
5.55 ± 0.48 | 0.077 ± 0.01 | 2.18 ± 0.31 | 1.53 ± 0.16 | 0.93 ± 0.02 | 176 to 178 | – | – | – | – | – | COc1cc(Nc2cc(C)nc3nc(NCc4cccc(F)c4)nn23)cc(OC)c1OC [Compound 7m, N^2-(3-Fluorobenzyl)-5-methyl-N^7-(3,4,5-trimethoxyphenyl)-[1,2,4]triazolo [1,5-a]pyrimidine-2,7-diamine] | –
9.61 ± 0.89 | > 10 | > 10 | 2.83 ± 0.22 | 2.5 ± 0.27 | 150 to 152 | – | – | – | – | – | COc1cc(Nc2cc(C)nc3nc(NCCc4ccc(F)cc4)nn23)cc(OC)c1OC [Compound 7aa, N^2-(4-Fluorophenethyl)-5-methyl-N^7-(3,4,5-trimethoxyphenyl)-[1,2,4]triazolo [1,5-a]pyrimidine-2,7-diamine] | –
1.99 ± 0.24 | 0.94 ± 0.09 | 2.01 ± 0.16 | 1.89 ± 0.16 | 0.86 ± 0.1 | 201 to 203 | – | – | – | – | – | COc1cc(Nc2cc(C)nc3nc(NCCc4ccccc4)nn23)cc(OC)c1OC [Compound 7z, 5-Methyl-N^2-phenethyl-N^7-(3,4,5-trimethoxyphenyl)-[1,2,4]triazolo [1,5-a]pyrimidine-2,7-diamine] | –
